Data reported in patent US6215002A, “Pyrrolopyrrolone derivatives as inhibitors of neutrophil elastase” (priority 1996, dated 2001).
Counter-ions that a name gives are not always drawn.

Target: T1, human neutrophil elastase (Homo sapiens, UniProt P08246)
T1 sequence (P08246 30-267): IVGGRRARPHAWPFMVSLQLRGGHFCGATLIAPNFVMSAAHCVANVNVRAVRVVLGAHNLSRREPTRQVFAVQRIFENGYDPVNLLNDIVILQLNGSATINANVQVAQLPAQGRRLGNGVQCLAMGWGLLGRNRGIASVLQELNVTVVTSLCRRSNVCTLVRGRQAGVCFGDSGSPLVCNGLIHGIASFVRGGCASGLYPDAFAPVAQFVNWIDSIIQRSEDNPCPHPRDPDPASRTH
Assay: In vitro assay of human neutrophil elastase (HNE)
Format: biochemical
Settings: 118 nM purified human neutrophil elastase, pH 8.6, 15 min incubation at 30° C., MeO-succinyl-alanyl-alanyl-prolyl-valyl-p-nitroanilide substrate; read-out: HNE IC50
Summary of the method: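 Residual activity was taken as the 10 min rate of absorbance rise at 405 nm after adding 0.6 mM MeO-succinyl-AAPV-p-nitroanilide. Curve fitting of activity against concentration gave IC50.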

| SMILES | IC50 [nM] |
| --- | --- |
| CCC[C@H]1C(=O)N(S(C)(=O)=O)[C@H]2CCN(C(=O)CCCN3CCOCC3)[C@H]12 (relative stereo) [Example 47, rel-(3R,3aR,6aS)-1-Methanesulfonyl-4-(4-morpholin-4-yl-butyryl)-3-propyl-hexahydro-pyrrolo[3,2-b]pyrrol-2-one] | 109 |
| CCC[C@H]1C(=O)N(S(=O)(=O)c2ccc3ccccc3c2)[C@H]2CCN(C(C)=O)[C@H]12 (relative stereo) [Example 24, rel-(3R,3aR,6aS)-4-Acetyl-1-(naphthalene-2-sulfonyl)-3-propyl-hexahydro-pyrrolo[3,2-b][pyrrol-2-one] | 9 |
| CCC[C@H]1C(=O)N(S(C)(=O)=O)[C@H]2CCN(S(=O)(=O)c3cc(C(F)(F)F)cc(C(F)(F)F)c3)[C@H]12 (relative stereo) [Example 224, rel-(3R,3aR,6aS)-4-(3,5-Bis-trifluoromethyl-benzenesulfonyl)-1-methanesulfonyl-3-propyl-hexahydro-pyrrolo[3,2-b]pyrrol-2-one] | 410 |
| CCC[C@H]1C(=O)N(S(C)(=O)=O)[C@H]2CCN(C(=O)CCN3CCOCC3)[C@H]12 (relative stereo) [Example 46, rel-(3R,3aR,6aS)-1-Methanesulfonyl-4-(3-morpholin-4-yl-propionyl)-3-propyl-hexahydro-pyrrolo[3,2-b]pyrrol-2-one] | 143 |
| CC(C)[C@H]1C(=O)N(S(C)(=O)=O)[C@H]2CCN(C(=O)CCCC3CCNCC3)[C@H]12 (relative stereo) [Example 255, rel-(3R,3aR,6aS)-3-Isopropyl-1-methanesulfonyl-4-(4-piperidin-4-yl-butyryl)-hexahydro-pyrrolo[3,2-b]pyrrol-2-one hydrochloride] | 144 |
| CCC[C@H]1C(=O)N(S(C)(=O)=O)[C@H]2CCN(C(=O)CCCN3CCCC3)[C@H]12 (relative stereo) [Example 89, rel-(3R,3aR,6aS)-1-Methanesulfonyl-3-propyl-4-(4-pyrrolidin-1-yl-butyryl)-hexahydro-pyrrolo[3,2-b]pyrrol-2-one hydrochloride] | 183 |
| CCC[C@H]1C(=O)N(S(=O)(=O)c2ccc(N)cc2)[C@H]2CCN(C(=O)CCCCCN3CCCCC3)[C@H]12 (relative stereo) [Example 209, rel-(3R,3aR,6aS)-1-(4-Amino-benzenesulfonyl)-4-(6-piperidin-1-yl-hexanoyl)-3-propyl-hexahydro-pyrrolo[3,2-b]pyrrol-2-one DL-tartrate] | 71 |
| CCC[C@H]1C(=O)N(S(C)(=O)=O)[C@H]2CCN(C(=O)CN(C)C)[C@H]12 (relative stereo) [Example 102, rel-(3R,3aR,6aS)-4-Dimethylaminoacetyl-1-methanesulfonyl-3-propyl-hexahydro-pyrrolo[3,2-b]pyrrol-2-one hydrochloride] | 91 |
| CCC[C@H]1C(=O)N(S(C)(=O)=O)[C@H]2CCN(S(=O)(=O)c3ccc(NC(C)=O)c(Cl)c3)[C@H]12 (relative stereo) [Example 213, rel-N-[2-Chloro-4-(4-methanesulfonyl-5-oxo-6R-propyl-hexahydro-(3aS,6aR)-pyrrolo[3,2-b]pyrrole-1-sulfonyl)-phenyl]-acetamide] | 40 |
| CCC[C@H]1C(=O)N(S(C)(=O)=O)[C@H]2CCN(C(=O)CCN(CC)CC)[C@H]12 (relative stereo) [Example 91, rel-(3R,3aR,6aS)-4-(3-Diethylamino-propionyl)-1-methanesulfonyl-3-propyl-hexahydro-pyrrolo-3,2-b]pyrrol-2-one hydrochloride] | 64 |
| C/C=C/C(=O)N1CC[C@H]2[C@H]1[C@@H](CCC)C(=O)N2S(C)(=O)=O (relative stereo) [Example 131, rel-(3R,3aR,6aS)-4-But-2E-enoyl-1-methanesulfonyl-3-propyl-hexahydro-pyrrolo[3,2-b]pyrrol-2-one] | 102 |
| CCC[C@H]1C(=O)N(S(=O)(=O)c2ccc3ccccc3c2)[C@H]2CCN(C(=O)CCCN3CCCCC3)[C@H]12 (relative stereo) [Example 39, rel-(3R,3aR,6aS)-1-(Naphthalene-2-sulfonyl)-4-(4-piperidin-l-yl-butyryl)-3-propyl-hexahydro-pyrrolo[3,2-b]pyrrol-2-one tartrate] | 189 |
| CCC[C@H]1C(=O)N(S(C)(=O)=O)[C@H]2CCN(C(=O)CCCN(C)C)[C@H]12 (relative stereo) [Example 85, rel-(3R,3aR,6aS)-4-(4-Dimethylamino-butyryl)-1-methanesulfonyl-3-propyl-hexahydro-pyrrolo[3,2-b]pyrrol-2-one DL-tartrate] | 182 |
| CCCCOc1ccc(S(=O)(=O)N2CC[C@H]3[C@H]2[C@@H](CCC)C(=O)N3S(C)(=O)=O)cc1 (relative stereo) [Example 214, rel-(3R,3aR,6aS)-4-(4-Butoxy-benzenesulfonyl)-1-methanesulfonyl-3-propyl-hexahydro-pyrrolo[3,2-b]pyrrol-2-one] | 464 |
| CCC[C@H]1C(=O)N(S(=O)(=O)c2cccs2)[C@H]2CCN(C(=O)CCCCCN3CCCCC3)[C@H]12 (relative stereo) [Example 169, rel-(3R,3aR,6aS)-4-(6-Piperidin-1-yl-hexanoyl)-3-propyl-1-(thiophene-2-sulfonyl)-hexahydro-pyrrolo[3,2-b]pyrrol-2-one DL-tartrate] | 29 |
| CCC[C@H]1C(=O)N(S(C)(=O)=O)[C@H]2CCN(C(=O)CN(CC)CC)[C@H]12 (relative stereo) [Example 101, rel-(3R,3aR,6aS)-4-Diethylaminoacetyl-1-methanesulfonyl-3-propyl-hexahydro-pyrrolo[3,2-b]pyrrol-2-one hydrochloride] | 169 |
| CCC[C@H]1C(=O)N(S(C)(=O)=O)[C@H]2CCN(C(=O)CCCCCN3CCCCCC3)[C@H]12 [Example 115, (3R,3aR,6aS)-4-(6-Azepin-1-yl-hexanoyl)-1-methanesulfonyl-3-propyl-hexahydro-pyrrolo[3,2-b]pyrrol-2-one hydrochloride] | 314 |
| CCC[C@H]1C(=O)N(S(C)(=O)=O)[C@H]2CCN(S(=O)(=O)c3cccc(N)c3)[C@H]12 (relative stereo) [Example 235, rel-(3R,3aR,6aS)-4-(3-Amino-benzenesulfonyl)-1-methanesulfonyl-3-propyl-hexahydro-pyrrolo[3,2-b]pyrrol-2-one hydrochloride] | 9 |
| CCCCOc1ccc(S(=O)(=O)N2C(=O)[C@H](CCC)[C@@H]3[C@@H]2CCN3C(=O)CCCCCN2CCCCC2)cc1 (relative stereo) [Example 204, rel-(3R,3aR,6aS)-1-(4-Butoxy-benzenesulfonyl)-4-(6-piperidin-1-yl-hexanoyl)-3-propyl-hexahydro-pyrrolo[3,2-b]pyrrol-2-one DL-tartrate] | 98 |
| CCC[C@H]1C(=O)N(S(C)(=O)=O)[C@H]2CCN(S(=O)(=O)c3ccc(S(C)(=O)=O)cc3)[C@H]12 (relative stereo) [Example 217, rel-(3R,3aR,6aS)-1-Methanesulfonyl-4-(4-methanesulfonyl-benzenesulfonyl)-3-propyl-hexahydro-pyrrolo[3,2-b]pyrrol-2-one] | 40 |
| CCC[C@H]1C(=O)N(S(C)(=O)=O)[C@H]2CCN(C(=O)CCCCCN3CCCC3)[C@H]12 (relative stereo) [Example 73, rel-(3R,3aR,6aS)-1-Methanesulfonyl-3-propyl-4-(6-pyrrolidin-1-yl-hexanoyl)-hexahydro-pyrrolo[3,2-b]pyrrol-2-one hydrochloride] | 74 |
| CCC[C@H]1C(=O)N(S(=O)(=O)c2ccc3ccccc3c2)[C@H]2CCN(S(=O)(=O)CCCN3CCN(C)CC3)[C@H]12 (relative stereo) [Example 14, rel-(3R,3aR,6aS)-4-[3-(4-Methyl-piperazin-1-yl)-propane-1-sulfonyl-1-(naphthalene-2-sulfonyl)-3-propyl-hexahydro-pyrrolo[3,2-b]pyrrol-2-one] | 193 |
| C=CC[C@H]1C(=O)N(S(=O)(=O)c2cc3ccccc3s2)[C@@H]2CCN(C(=O)OCc3ccccc3)[C@H]21 (relative stereo) [Example 42, rel-(3aR,6R,6aS)-6-Allyl-4-(benzo[b]thiophene-2-sulfonyl)-5-oxo-hexahydro-pyrrolo[3,2-b]pyrrole-1-carboxylic acid benzyl ester] | 78 |
| CCC[C@H]1C(=O)N(S(=O)(=O)c2c(C)noc2C)[C@H]2CCN(C(=O)CCN3CCCCC3)[C@H]12 (relative stereo) [Example 170, rel-(3R,3aR,6aS)-1-(3,5-Dimethyl-isoxazole-4-sulfonyl)-4-(3-piperidin-1-yl-propionyl)-3-propyl-hexahydro-pyrrol[3,2-b]pyrrol-2-one DL-tartrate] | 180 |
| CCC[C@H]1C(=O)N(S(C)(=O)=O)[C@H]2CCN(S(=O)(=O)c3ccc(CN4CCCCCC4)cc3)[C@H]12 (relative stereo) [Example 195, rel-(3R,3aR,6aS)-4-(4-Azepin-1-ylmethyl-benzenesulfonyl)-1-methanesulfonyl-3-propyl-hexahydro-pyrrolo[3,2-b]pyrrol-2-one hydrochloride] | 68 |
| CCC[C@H]1C(=O)N(S(=O)(=O)c2cccc3ccccc23)[C@H]2CCN(S(C)(=O)=O)[C@H]12 (relative stereo) [Example 31, rel-(3R,3aR,6aS)-4-Methanesulfonyl-1-(naphthalene-1-sulfonyl)-3-propyl-hexahydro-pyrrolo[3,2-b]pyrrol-2-one] | 80 |
| C=CC[C@H]1C(=O)N(S(=O)(=O)c2ccccc2)[C@H]2CCN(C(=O)OCc3ccccc3)[C@H]12 (relative stereo) [Example 45, rel-(3aS,6R,6aR)-6-Allyl-4-benzenesulfonyl-5-oxo-hexahydro-pyrrolo[3,2-b]pyrrole-1-carboxylic acid benzyl ester] | 531 |
